Legend:
BRD4 long = target: T1, BRD4 long (Homo sapiens, UniProt O60885); assay: BRD4 (long) degradation assay, Western blotting; assay type: cell-based
T1 construct: endogenous in cells; host or cells: HEK293T
Description: (§1) C33A cells were purchased from American Type Culture Collection (ATCC) and were cultured in Dulbecco's Modified Eagle Medium (DMEM) containing 10% (v/v) fetal bovine serum (FBS) and maintained at 37° C. with 5% CO2. 22RV1 cells were purchased from the ATCC and were cultured in RPMI-1640 Medium containing 10% (v/v) FBS and maintained at 37° C. with 5% CO2. HEK293T cells were obtained from the UC Berkeley Cell Culture Facility and were cultured in DMEM containing 10% (v/v) FBS and maintained at 37° C. with 5% CO2. K562 cells were obtained from the UC Berkeley Cell Culture Facility and were cultured in Iscove's Modified Dulbecco's Medium (IMDM) containing 10% (v/v) FBS and maintained at 37° C. with 5% CO2. MV-4-11 cells were obtained from the ATCC and were cultured in IMDM containing 10% (v/v) FBS and maintained at 37° C. with 5% CO2. A549 cells were obtained from the ATCC and were cultured in F-12K Medium containing 10% (v/v) FBS and maintained at 37° C. with 5% CO2. Mino cells were obtained from the ATCC and were cultured in RPMI-1640 Medium containing 10% (v/v) FBS and maintained at 37° C. with 5% CO2. LNCaP cells were obtained from the ATCC and were cultured in RPMI-1640 Medium containing 10% (v/v) FBS and maintained at 37° C. with 5% CO2. Unless otherwise specified, all cell culture materials were purchased from Gibco. It is not known whether HEK293T cells are from male or female origin.
(§2) Cells were washed twice with cold PBS, scraped, and pelleted by centrifugation (700 g, 5 min, 4° C.). Pellets were resuspended in PBS, sonicated, clarified by centrifugation (12,000 g, 10 min, 4° C.), and lysate was transferred to new low-adhesion microcentrifuge tubes. Proteome concentrations were determined using BCA assay and lysate was diluted to appropriate working concentrations.
(§3) Proteins were resolved by SDS/PAGE and transferred to nitrocellulose membranes using the Trans-Blot Turbo transfer system (Bio-Rad). Membranes were blocked with 5% BSA in Tris-buffered saline containing Tween 20 (TBS-T) solution for 30 min at RT, washed in TBS-T, and probed with primary antibody diluted in recommended diluent per manufacturer overnight at 4° C. After 3 washes with TBS-T, the membranes were incubated in the dark with IR680- or IR800-conjugated secondary antibodies at 1:10,000 dilution in 5% BSA in TBS-T at RT for 1 h. After 3 additional washes with TBST, blots were visualized using an Odyssey Li-Cor fluorescent scanner. The membranes were stripped using ReBlot Plus Strong Antibody Stripping Solution (EMD Millipore) when additional primary antibody incubations were performed. Antibodies used in this study were CDK4 (Abcam ab108357), Vinculin (Abcam ab129002), GAPDH (Cell Signaling Technology 14C10), RNF126 (Santa Cruz Biotechnology sc-376005), BRD4 (Abcam ab128874), Beta Actin (Cell Signaling Technology 13E5), PDE5 (Abcam ab259945), AR-V7 (Abcam ab273500), c-Abl (Santa Cruz Biotechnology sc-23), SMARCA2 (Abcam ab240648), LRRK2 (Abcam ab133474), BTK (Cell Signaling Technology D3H5), Androgen Receptor (Abcam ab133273).

BRD4 short = target: T2, BRD4 short (Homo sapiens, UniProt O60885); assay: BRD4 (short) degradation assay, Western blotting; assay type: cell-based
T2 construct: endogenous in cells; host or cells: HEK293T
Description: as §1, §2, §3

[1] = first value of cell (long/short)
[2] = second value of cell (long/short)

COc1ccc(C(=O)/C(C)=C/C(=O)N2CCN(C(=O)C[C@@H]3N=C(c4ccc(Cl)cc4)c4c(sc(C)c4C)-n4c(C)nnc43)CC2)cc1 [Compound 139, (S,E)-4-(4-(2-(4-(4-chlorophenyl)-2,3,9-trimethyl-6H-thieno[3,2-f][1,2,4]triazolo[4,3-a][1,4]diazepin-6-yl)acetyl)piperazin-1-yl)-1-(4-methoxyphenyl)-2-methylbut-2-ene-1,4-dione]
DC50 (BRD4 long; [1]): > 1000 nM | DC50 (BRD4 short; [2]): > 1000 nM

Cc1sc2c(c1C)C(c1ccc(Cl)cc1)=N[C@@H](CC(=O)N1CCN(C(=O)/C=C/C(=O)c3ccccc3)CC1)c1nnc(C)n1-2 [Compound 140, (S,E)-1-(4-(2-(4-(4-chlorophenyl)-2,3,9-trimethyl-6H-thieno[3,2-f][1,2,4]triazolo[4,3-a][1,4]diazepin-6-yl)acetyl)piperazin-1-yl)-4-phenylbut-2-ene-1,4-dione]
DC50 (BRD4 long; [1]): < 100 nM | DC50 (BRD4 short; [2]): < 100 nM

COc1ccc(C(=O)/C=C(\C)C(=O)N2CCN(C(=O)C[C@@H]3N=C(c4ccc(Cl)cc4)c4c(sc(C)c4C)-n4c(C)nnc43)CC2)cc1 [Compound 141, (S,E)-1-(4-(2-(4-(4-chlorophenyl)-2,3,9-trimethyl-6H-thieno[3,2-f][1,2,4]triazolo[4,3-a][1,4]diazepin-6-yl)acetyl)piperazin-1-yl)-4-(4-methoxyphenyl)-2-methylbut-2-ene-1,4-dione]
DC50 (BRD4 long; [1]): > 1000 nM | DC50 (BRD4 short; [2]): > 1000 nM

COc1ccccc1C(=O)/C=C/C(=O)N1CCN(C(=O)C[C@@H]2N=C(c3ccc(Cl)cc3)c3c(sc(C)c3C)-n3c(C)nnc32)CC1 [Compound 142, (S,E)-1-(4-(2-(4-(4-chlorophenyl)-2,3,9-trimethyl-6H-thieno[3,2-f][1,2,4]triazolo[4,3-a][1,4]diazepin-6-yl)acetyl)piperazin-1-yl)-4-(2-methoxyphenyl)but-2-ene-1,4-dione]
DC50 (BRD4 long; [1]): < 100 nM | DC50 (BRD4 short; [2]): < 100 nM

COc1cccc(C(=O)/C=C/C(=O)N2CCN(C(=O)C[C@@H]3N=C(c4ccc(Cl)cc4)c4c(sc(C)c4C)-n4c(C)nnc43)CC2)c1 [Compound 143, (S,E)-1-(4-(2-(4-(4-chlorophenyl)-2,3,9-trimethyl-6H-thieno[3,2-f][1,2,4]triazolo[4,3-a][1,4]diazepin-6-yl)acetyl)piperazin-1-yl)-4-(3-methoxyphenyl)but-2-ene-1,4-dione]
DC50 (BRD4 long; [1]): < 100 nM | DC50 (BRD4 short; [2]): < 100 nM

COc1ccc(C(=O)/C=C(\C#N)C(=O)N2CCN(C(=O)C[C@@H]3N=C(c4ccc(Cl)cc4)c4c(sc(C)c4C)-n4c(C)nnc43)CC2)cc1 [Compound 144, (S,E)-2-(4-(2-(4-(4-chlorophenyl)-2,3,9-trimethyl-6H-thieno[3,2-f][1,2,4]triazolo[4,3-a][1,4]diazepin-6-yl)acetyl)piperazine-1-carbonyl)-4-(4-methoxyphenyl)-4-oxobut-2-enenitrile]
DC50 (BRD4 long; [1]): > 1000 nM | DC50 (BRD4 short; [2]): > 1000 nM

Cc1sc2c(c1C)C(c1ccc(Cl)cc1)=N[C@@H](CC(=O)N1CCN(C(=O)/C=C/C(=O)c3ccc(F)cc3)CC1)c1nnc(C)n1-2 [Compound 202, (S,E)-1-(4-(2-(4-(4-chlorophenyl)-2,3,9-trimethyl-6H-thieno[3,2-f][1,2,4]triazolo[4,3-a][1,4]diazepin-6-yl)acetyl)piperazin-1-yl)-4-(4-fluorophenyl)but-2-ene-1,4-dione]
DC50 (BRD4 long; [1]): < 100 nM | DC50 (BRD4 short; [2]): < 100 nM

Cc1sc2c(c1C)C(c1ccc(Cl)cc1)=N[C@@H](CC(=O)N1CCN(C(=O)/C=C/C(=O)c3ccc4c(c3)NC(=O)CO4)CC1)c1nnc(C)n1-2 [Compound 203, (S,E)-1-(4-(2-(4-(4-chlorophenyl)-2,3,9-trimethyl-6H-thieno[3,2-f][1,2,4]triazolo[4,3-a][1,4]diazepin-6-yl)acetyl)piperazin-1-yl)-4-(3-oxo-3,4-dihydro-2H-benzo[b][1,4]oxazin-6-yl)but-2-ene-1,4-dione]
DC50 (BRD4 long; [1]): 10 to 100 nM | DC50 (BRD4 short; [2]): 10 to 100 nM

Cc1sc2c(c1C)C(c1ccc(Cl)cc1)=N[C@@H](CC(=O)N[C@H]1C[C@H](NC(=O)/C=C/C(=O)c3ccccc3)C1)c1nnc(C)n1-2 [Compound 204, (E)-N-((1S,3r)-3-(2-((S)-4-(4-chlorophenyl)-2,3,9-trimethyl-6H-thieno[3,2-f][1,2,4]triazolo[4,3-a][1,4]diazepin-6-yl)acetamido)cyclobutyl)-4-oxo-4-phenylbut-2-enamide]
DC50 (BRD4 long; [1]): 10 to 100 nM | DC50 (BRD4 short; [2]): 10 to 100 nM

COc1ccc(C(=O)/C=C/C(=O)N2CCN(C(=O)C[C@@H]3N=C(c4ccc(Cl)cc4)c4c(sc(C)c4C)-n4c(C)nnc43)CC2)cn1 [Compound 205, (S,E)-1-(4-(2-(4-(4-chlorophenyl)-2,3,9-trimethyl-6H-thieno[3,2-f][1,2,4]triazolo[4,3-a][1,4]diazepin-6-yl)acetyl)piperazin-1-yl)-4-(6-methoxypyridin-3-yl)but-2-ene-1,4-dione]
DC50 (BRD4 long; [1]): 10 to 100 nM | DC50 (BRD4 short; [2]): 10 to 100 nM

COc1ccc(C(=O)/C=C/C(=O)N[C@H]2C[C@@H](NC(=O)C[C@@H]3N=C(c4ccc(Cl)cc4)c4c(sc(C)c4C)-n4c(C)nnc43)C2)cn1 [Compound 206, (E)-N-((1R,3s)-3-(2-((S)-4-(4-chlorophenyl)-2,3,9-trimethyl-6H-thieno[3,2-f][1,2,4]triazolo[4,3-a][1,4]diazepin-6-yl)acetamido)cyclobutyl)-4-(6-methoxypyridin-3-yl)-4-oxobut-2-enamide]
DC50 (BRD4 long; [1]): 10 to 100 nM | DC50 (BRD4 short; [2]): 10 to 100 nM

COc1ccc(C(=O)/C=C/C(=O)N[C@H]2C[C@H](NC(=O)C[C@@H]3N=C(c4ccc(Cl)cc4)c4c(sc(C)c4C)-n4c(C)nnc43)C2)cn1 [Compound 207, (E)-N-((1S,3r)-3-(2-((S)-4-(4-chlorophenyl)-2,3,9-trimethyl-6H-thieno[3,2-f][1,2,4]triazolo[4,3-a][1,4]diazepin-6-yl)acetamido)cyclobutyl)-4-(6-methoxypyridin-3-yl)-4-oxobut-2-enamide]
DC50 (BRD4 long; [1]): 10 to 100 nM | DC50 (BRD4 short; [2]): 10 to 100 nM

Cc1sc2c(c1C)C(c1ccc(Cl)cc1)=N[C@@H](CC(=O)N1CCN(C(=O)/C=C/C(=O)c3ccc4c(c3)OCC4)CC1)c1nnc(C)n1-2 [Compound 208, (S,E)-1-(4-(2-(4-(4-chlorophenyl)-2,3,9-trimethyl-6H-thieno[3,2-f][1,2,4]triazolo[4,3-a][1,4]diazepin-6-yl)acetyl)piperazin-1-yl)-4-(2,3-dihydrobenzofuran-6-yl)but-2-ene-1,4-dione]
DC50 (BRD4 long; [1]): < 10 nM | DC50 (BRD4 short; [2]): < 10 nM

Cc1sc2c(c1C)C(c1ccc(Cl)cc1)=N[C@@H](CC(=O)N[C@H]1C[C@H](NC(=O)/C=C/C(=O)c3ccc4c(c3)OCC4)C1)c1nnc(C)n1-2 [Compound 209, (E)-N-((1S,3r)-3-(2-((S)-4-(4-chlorophenyl)-2,3,9-trimethyl-6H-thieno[3,2-f][1,2,4]triazolo[4,3-a][1,4]diazepin-6-yl)acetamido)cyclobutyl)-4-(2,3-dihydrobenzofuran-6-yl)-4-oxobut-2-enamide]
DC50 (BRD4 long; first value of cell, range with lower bound in nM and upper bound in μM): 100 to 1000 nM | DC50 (BRD4 short; second value of cell, range with lower bound in nM and upper bound in μM): 100 to 1000 nM

Cc1sc2c(c1C)C(c1ccc(Cl)cc1)=N[C@@H](CC(=O)N[C@H]1C[C@H](NC(=O)/C=C/C(=O)N3CC4(COC4)C3)C1)c1nnc(C)n1-2 [Compound 254, (E)-N-((1S,3r)-3-(2-((S)-4-(4-chlorophenyl)-2,3,9-trimethyl-6H-thieno[3,2-f][1,2,4]triazolo[4,3-a][1,4]diazepin-6-yl)acetamido)cyclobutyl)-4-oxo-4-(2-oxa-6-azaspiro[3.3]heptan-6-yl)but-2-enamide]
DC50 (BRD4 short; [2]): > 5000 nM

Source: patent publication US20260200939A1, “MOLECULAR GLUE DEGRADER COMPOUNDS AND USES THEREOF” (Novartis AG, priority 2022, published 2026)
